Experiment [1] in a line: GFP-wavelength compound autofluorescence in cells – imaging, high-content imaging, artefact control, dose response (AID 2124).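 For cell count: cells exposed to compound for 48 hours before fixing.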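 For z-score: cells exposed to compound for 48 hours before fixing.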 Conditions: cells, GFP-channel autofluorescence, high-content imaging, at 10 µM; for z-score: stronger effect = higher value.
Experiment [2] deals with cells, GFP-channel autofluorescence, high-content imaging. The description is as above.

The record followed here is PubChem BioAssay AID2124 (Sanford-Burnham Center for Chemical Genomics, 2009).

Inconclusive results are not listed. The source made the active and inactive calls. The rule behind the calls is not given here; tested in MIN6 cells.

As for `CCOC(=O)Cc1csc(NC(=O)c2sc3nc4c(C)cc(C)cc4cc3c2N)n1`, the cell count in experiment [1] was found to be 2560 cells. For the same compound, the EC50 in experiment [2] was 10.9 µM (inactive).
`N#C/C(=C/c1ccc(N2CCOCC2)o1)c1ccc(Cl)cc1` had a cell count in experiment [1] of 1320 cells. The EC50 in experiment [2] was 7.31 µM.
With `COc1ccc(NC(=O)/C(C#N)=C\c2ccc(N3CCOCC3)o2)cc1`, the cell count in experiment [1] was determined as 3270 cells. Moreover, the EC50 in experiment [2] is 11.6 µM (inactive).
For `CCCN1C(=O)S/C(=C/c2ccc(N3CCOCC3)o2)C1=O` the same measures were 3210 cells and 5.4 µM.
In experiment [1], `COc1cc2c(cc1OC)C1=CC(=O)C(=O)N1C(C)(C)C2` gave a cell count of 2990 cells. In addition, in experiment [2], the EC50 is 5.78 µM.
In the case of `Cc1cccn2c(=O)c(/C=C3\SC(=S)NC3=O)c(NCCCN3CCOCC3)nc12`, the cell count in experiment [1] came out at 2700 cells. In addition, the 50% effective concentration (EC50) in experiment [2] is 9.39 µM.
For `Cc1cc2c(C(F)(F)F)cc(=O)oc2c2c1NCCC2`, the cell count in experiment [1] was found to be 3250 cells. Moreover, the EC50 in experiment [2] was 6.77 µM.
For `CCN1CC=C2C(C#N)=C(N)C(C#N)(C#N)C(c3cc(Cl)ccc3Cl)C2C1` (configuration not stated) the same measures were 2980 cells and 12.8 µM (inactive).
With `N#C/C(=C/c1ccc(N2CCCCC2)o1)c1cccc(F)c1`, the cell count in experiment [1] worked out at 1730 cells. In addition, the EC50 in experiment [2] was 5.32 µM.
For `Cc1c(N=C2N=C(NC(=O)c3cccs3)c3ccccc32)c(=O)n(-c2ccccc2)n1C` the same measures were 2570 cells and 11.8 µM (inactive).
Compound `N#CC1=C(N)C(C#N)(C#N)[C@H](c2ccoc2)[C@H]2CN(Cc3ccccc3)CC=C12` returned a cell count in experiment [1] of 2630 cells. Also, in experiment [2], the EC50 was 10.3 µM (inactive).
For `Cc1ccc(NS(=O)(=O)c2cc([N+](=O)[O-])ccc2N/N=C/c2sc(N3CCOCC3)nc2-c2ccccc2)c(C)c1` the same measures were 2790 cells and 4.45 µM.
As for `C=CCN1C=CC(=CC=C(C#N)C#N)C=C1`, in experiment [1], the cell count came out at 2960 cells. In addition, the EC50 in experiment [2] is 8.1 µM.
With `CC(=O)c1c(C)[nH]c(-c2ccccc2)nc1=S`, the cell count in experiment [1] was determined as 3120 cells. Moreover, the EC50 in experiment [2] was 2.37 µM.
On to `CNC(=O)c1c(NC(=O)c2ccc(S(=O)(=O)N3CCCc4ccccc43)cc2)sc2c1CCN(C)C2`, for which the cell count in experiment [1] was 3190 cells. Also, in experiment [2], the EC50 was 8.08 µM.
On the same counts, the results for `O=[N+]([O-])c1ccc(/C=C/C2=NN(c3ccccc3)C(c3ccco3)C2)o1` (configuration not stated) are 3240 cells and 3.87 µM.
In turn, `Cc1ccc(S(=O)(=O)CCSc2nc(C)cc(C(F)(F)F)c2C#N)cc1` gave a cell count in experiment [1] of 2460 cells. Moreover, the EC50 in experiment [2] was 7.21 µM.
For the compound `CN1CC=C2C(C#N)=C(N)C(C#N)(C#N)C(Cc3ccccc3)C2C1` (configuration not stated), the cell count in experiment [1] came to 3290 cells. In experiment [2], the EC50 was 13.7 µM (inactive).
The compound `Cn1cc(/C=C2\SC(=S)N(NC(=O)c3ccccc3Cl)C2=O)c2ccccc21` showed a cell count in experiment [1] of 3740 cells. Besides, the EC50 in experiment [2] was 13.9 µM (inactive).
As to `COc1ccc(CN2C(=O)/C(=C/c3ccc(-c4ccc(Cl)c(C(=O)O)c4)o3)SC2=S)cc1`, in experiment [1], the cell count worked out at 3020 cells. Moreover, the EC50 in experiment [2] was > 16 µM (inactive).
`O=c1oc2cc(O)ccc2cc1-c1nc2c(s1)CCc1ccccc1-2` had a cell count in experiment [1] of 2720 cells. For the same compound, in experiment [2], the EC50 was 7.42 µM.
For `N#C/C(=C\c1ccc(N2CCOCC2)o1)C(=O)NCCc1ccccc1` the same measures were 3060 cells and 8.69 µM.
In experiment [1], `Cc1ccc(CNc2ccc3c(c2)OCO3)cc1` came in with a cell count of 2720 cells. Moreover, the EC50 in experiment [2] was 6.18 µM.
Turning to `COc1ccc(C(=O)c2sc3nc(-c4ccccc4)ccc3c2N)cc1OC`, in experiment [1], the cell count amounted to 2560 cells. Moreover, the 50% effective concentration (EC50) in experiment [2] is 1.87 µM.
In the case of `Cc1cccc(N=Cc2[nH]c3ccc(Br)c(Cl)c3c2O)c1`, in experiment [1], the cell count was 3340 cells. For the same compound, the EC50 in experiment [2] is > 16 µM (inactive).
Consider `CCCNc1c(F)c(F)c2c(C)c3ccccc3nc2c1F`, for which the cell count in experiment [1] was 3140 cells. Further, the EC50 in experiment [2] was 10.9 µM (inactive).
Turning to `CCCN1C=CC(=C/C=C(\C#N)C(=O)OCC)C=C1`, the cell count in experiment [1] was 2900 cells. For the same compound, in experiment [2], the EC50 is 6.81 µM.
Compound `CC1=C/C(=C\C=C(C#N)C#N)N(C)c2ccccc21` yielded a cell count in experiment [1] of 3120 cells. For the same compound, in experiment [2], the EC50 is 3.23 µM.
`CC(C)N1CC=C2C(C#N)=C(N)C(C#N)(C#N)[C@H](c3ccoc3)[C@H]2C1` registered a cell count in experiment [1] of 2840 cells. For the same compound, the half-maximal effective concentration (EC50) in experiment [2] is 6.74 µM.
In the case of `COc1ccc2nc(SCC(C)=O)c(C#N)cc2c1`, the cell count in experiment [1] was determined as 2490 cells. Further, the 50% effective concentration (EC50) in experiment [2] was 7.2 µM.
For `COc1ccc(C(=O)/C=C/c2ccc(N(C)C)cc2)c(OC)c1` the same measures were 2380 cells and 9.89 µM.
Compound `CN(C)c1ccc(/C=C/C(O)=C2/C(=O)N(C)C3(C)CC2c2ccccc2O3)cc1` (configuration not stated) showed a cell count in experiment [1] of 2640 cells. For the same compound, the EC50 in experiment [2] is 7.25 µM.
In turn, `N#C/C(=C\N1CCN(Cc2ccc3c(c2)OCO3)CC1)c1nc2ccccc2s1` gave a cell count in experiment [1] of 3300 cells. For the same compound, the EC50 in experiment [2] is 10.7 µM (inactive).
Turning to `Cc1ccc(/C(C#N)=C\c2ccc(N3CCOCC3)o2)cc1`, in experiment [1], the cell count amounted to 1110 cells. Besides, the EC50 in experiment [2] was 10.3 µM (inactive).
On to `CCOC(=O)N1CCN(/C=C(\C#N)c2nc3ccccc3s2)CC1`, for which the cell count in experiment [1] stood at 2980 cells. In addition, the EC50 in experiment [2] is 11.7 µM (inactive).
As for `Cc1csc(NC(=O)c2sc3nc(-c4cccs4)ccc3c2N)n1`, in experiment [1], the cell count worked out at 2840 cells. For the same compound, the EC50 in experiment [2] was 15.7 µM (inactive).
Compound `COc1ccc(C2C(C(C)=O)=C(C)N=c3s/c(=C\c4cc(C)n(C)c4C)c(=O)n32)c(OC)c1` (configuration not stated) showed a cell count in experiment [1] of 3650 cells. Moreover, in experiment [2], the half-maximal effective concentration (EC50) is 6.06 µM.
`Cc1cc(/C=C2/C(=O)N(C)C(=S)N2C)ccc1N1CCCC1` yielded a cell count in experiment [1] of 2680 cells. Besides, in experiment [2], the half-maximal effective concentration (EC50) was 3.02 µM.
For `COc1cccc2sc(NNC(=O)C3=COCCO3)nc12` the same measures were 3320 cells and 8.52 µM.
Take `CC(C)N1CC=C2C(C#N)=C(N)C(C#N)(C#N)C(c3ccccc3)C2C1` (configuration not stated): in experiment [1], the cell count stood at 3040 cells. The EC50 in experiment [2] is 8.22 µM.
The compound `CN1CC=C2C(C#N)=C(N)C(C#N)(C#N)C(c3ccncc3)C2C1` (configuration not stated) came in with a cell count in experiment [1] of 2850 cells. In addition, the EC50 in experiment [2] was 14.8 µM (inactive).
Take `Cc1nonc1NC(=O)CSc1nc2c(C)cccc2cc1C#N`: the cell count in experiment [1] is 3270 cells. Further, the EC50 in experiment [2] is 9.41 µM.
On to `C=CCN1C(=O)/C(=C\C=C2\N(C)c3ccccc3C2(C)C)SC1=S`, for which, in experiment [1], the cell count stood at 2620 cells. Also, the EC50 in experiment [2] was 6.86 µM.
With `CN1C(=O)C(=Cc2ccc(N3CCCCC3)o2)C(=O)N(C)C1=S`, the cell count in experiment [1] was determined as 2940 cells. In experiment [2], the EC50 is > 16 µM (inactive).
With `CN(C)c1ccc(/C=C/C(=O)c2c(O)c3ccccc3oc2=O)cc1`, the cell count in experiment [1] is 3230 cells. Moreover, the EC50 in experiment [2] was > 16 µM (inactive).
In experiment [1], `CN1CCS/C1=C/C=C1/SC(=S)N(Cc2ccccc2)C1=O` had a cell count of 2970 cells. Also, the EC50 in experiment [2] is 8.87 µM.
Compound `CC(=O)Nc1ccc(N=Cc2c(O)c(C(=O)Nc3ccccc3)cc3ccccc23)cc1` came in with a cell count in experiment [1] of 1540 cells. Moreover, in experiment [2], the EC50 was 11.1 µM (inactive).
On to `O=C1/C(=N\S(=O)(=O)c2cccs2)C([n+]2cccc(Cc3ccccc3)c2)=C([O-])c2ccccc21`, for which, in experiment [1], the z-score is -0.31 (inactive) and the cell count turned out to be 307 cells.
In the case of `CN1C2CCC1/C(=C/c1cccn1C)C(=O)/C2=C\c1cccn1C`, in experiment [1], the z-score was -0.29 (inactive) and the cell count worked out at 3280 cells.
On the same counts, the results for `CC(C)=NNc1nc2c(c(=O)n(C)c(=O)n2C)n1CCc1ccccc1` are -0.39 (inactive) and 3610 cells.
For `CC[n+]1c(/C=C/C=C/N(C(C)=O)c2ccccc2)sc2cc(OC)ccc21`, in experiment [1], the z-score was 7.8 and the cell count is 111 cells.
As for `N#Cc1c2c(c(-n3cnc4ccccc43)n3c1nc1ccccc13)CCC2`, in experiment [1], the z-score was -0.25 (inactive) and the cell count was 3100 cells.
As for `C=CCNC(=O)/C(=C\c1ccc(Br)cc1)NC(=O)c1ccccc1OC`, in experiment [1], the z-score is -0.39 (inactive) and the cell count worked out at 3390 cells.
Regarding `Nc1cc2nc3ccccc3nc2cc1N`, in experiment [1], the z-score was -0.37 (inactive) and the cell count amounted to 1390 cells.
On to `Cc1cc(/C=N/n2cnnc2)c(C)n1-c1cccc(C(=O)O)c1`, for which, in experiment [1], the z-score was -0.33 (inactive) and the cell count was 2960 cells.
On the same counts, the results for `N#C/C(=C/c1ccc(N2CCOCC2)o1)c1nc2ccccc2[nH]1` are 0.11 and 2960 cells.
Regarding `COc1nc(OC)nc(N2CCC(C(=O)NCc3cccs3)CC2)n1`, in experiment [1], the z-score was -0.33 (inactive) and the cell count was 2940 cells.
On to `CCCOc1ccc(-c2nn(-c3ccccc3)cc2/C=C2\SC(=S)N(C3CCS(=O)(=O)C3)C2=O)cc1` (configuration not stated), for which, in experiment [1], the z-score was -0.23 (inactive) and the cell count was 2830 cells.
Consider `COCCCNc1c2c3c(cccc3[nH]c1=O)C(=O)c1ccccc1-2`, for which, in experiment [1], the z-score was 1.79 and the cell count is 2800 cells.
For `COC(=O)c1cnn2c(C(F)(F)F)cc(-c3ccc(F)cc3)nc12` the same measures were -0.33 (inactive) and 2980 cells.
For `CCN(CC)c1ccc2cc(C#N)c(=O)oc2c1`, in experiment [1], the z-score was -0.32 (inactive) and the cell count turned out to be 3390 cells.
For `CCCn1nc2cc(C(=O)NCc3ccccc3)ccc2c1OCC` the same measures were -0.33 (inactive) and 3340 cells.
On to `CCCn1c(SCC(=O)NC2CCCCC2)nnc1-c1ccncc1`, for which, in experiment [1], the z-score is -0.25 (inactive) and the cell count came to 2960 cells.
For `CS(=O)(=O)ON=C1CCN(S(=O)(=O)c2ccccc2)CC1` the same measures were -0.33 (inactive) and 3400 cells.
`COc1ccccc1NS(=O)(=O)c1cc([N+](=O)[O-])ccc1N/N=C/c1sc(N2CCOCC2)nc1-c1ccccc1`: in experiment [1], the z-score is 0.22 and the cell count was 2550 cells.
Regarding `Brc1ccc(Oc2nsnc2N2CCOCC2)cc1`, in experiment [1], the z-score was -0.34 (inactive) and the cell count is 3270 cells.

For orientation: EC50 means the concentration needed to bring the measured effect to its halfway point.
